Like-named read-outs stand apart in the source and are kept apart here.
Tests used:
[1] = system: Aβ40 in conditioned medium of cells stably expressing Amyloid Precursor Protein (APP); experiment: In vitro BACE cell-based assay (Aβ40 in conditioned medium, sandwich ELISA)
Description: In Vitro BACE Cell-Based Assay
The cell-based assay measures inhibition or reduction of Aβ40 in conditioned medium of test compound treated cells expressing amyloid precursor protein.
Cells stably expressing Amyloid Precursor Protein (APP) were plated at a density of 40K cells/well in 96 well plates (Costar). The cells were cultivated for 24 hours at 37° C. and 5% CO2 in DMEM supplemented with 10% FBS. The test compounds were then added to cells in 10-point dose response concentrations with the starting concentration being either 100 μM or 10 μM. The compounds were diluted from stock solutions in DMSO and the final DMSO concentration of the test compounds on cells was 0.1%. […] The IC50 of the compound was calculated from the percent of control or percent inhibition of Aβ 40 as a function of the concentration of the test compound.
The sandwich ELISA to detect Aβ 40 was performed in 96 well microtiter plates, which were pre-treated with goat anti-rabbit IgG (Pierce). The capture and detecting antibody pair that were used to detect Aβ 40 from cell supernatants were affinity purified pAb40 (Biosource) and biotinylated 6E10 (Signet Labs Inc.), respectively. The optimal concentration for the pAb40 antibody was 3 μg/ml in Superblock/TBS (Pierce) that was supplemented with 0.05% Tween 20 (Sigma).
Cellular supernatants were incubated with the capture antibody for 3 h at 4° C., followed by 3 wash steps in TBS-tween (0.05%). The detecting antibody incubation was for 2 h at 4° C., again followed by the wash steps as described previously. The final readout of the ELISA is Time-Resolved Fluorescence (counts per minute) using Delfia reagents Streptavidin-Europium and Enhancement solutions (Perkin Elmer) and the Victor 2 multilabel counter (Perkin Elmer).

[2] = biological target: Beta Secretase enzyme (BACE) (Homo sapiens, UniProt P56817); experiment: In vitro enzymatic BACE FRET (fluorescence resonance energy transfer) assay; type: biochemical
Description: In Vitro Enzymatic Bace Fret (Fluorescence Resonance Energy Transfer) Assay (Enzyme Assay Data in the Example Table I)
The assay buffer used in this screen is 0.05 M acetate, pH 4.2, 10% DMSO final, 100 uM genapol (which is a nonionic detergent, below its Critical Micelle Concentration). […] This assay is effectively started by the addition of FRET substrate (50 nM) and the combination is incubated for one hour. The FRET assay is terminated with by addition of Tris buffer, which raises the pH to neutrality, and the fluorescence is determined. The FRET substrate is a peptide with commercially available fluorophore and quencher, on opposite sides of the BACE cleavage site.

[3] = Homo sapiens, HEK293, average IC50, read-out: HEK cell assay
[4] = Homo sapiens, HEK293, read-out: HEK cell assay (uM)
[5] = Homo sapiens, HEK293, average IC50, HEK cells, read-out: HEK cell assay
[6] = average IC50, enzyme assay, read-out: BACE 1 FRET assay

Sequence of Beta Secretase enzyme (BACE) (P56817 46-501, species assumed): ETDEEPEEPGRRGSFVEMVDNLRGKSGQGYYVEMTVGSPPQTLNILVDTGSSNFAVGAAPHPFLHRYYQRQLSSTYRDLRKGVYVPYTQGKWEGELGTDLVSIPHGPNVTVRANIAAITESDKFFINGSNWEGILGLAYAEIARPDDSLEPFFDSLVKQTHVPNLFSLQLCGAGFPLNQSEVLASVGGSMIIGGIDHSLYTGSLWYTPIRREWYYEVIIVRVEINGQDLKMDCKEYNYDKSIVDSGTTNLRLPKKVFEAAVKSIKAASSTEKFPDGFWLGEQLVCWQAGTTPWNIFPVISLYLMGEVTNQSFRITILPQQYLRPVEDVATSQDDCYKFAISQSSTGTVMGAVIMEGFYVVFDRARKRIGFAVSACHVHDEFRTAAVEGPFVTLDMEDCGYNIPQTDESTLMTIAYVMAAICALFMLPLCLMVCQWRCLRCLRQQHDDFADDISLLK

2′-amino-9-fluoro-7-((3-methyl-3-oxetanyl)ethynyl)spiro[chromeno[2,3-c]pyridine-5,4′-[1,3]oxazol]-3-yl)benzonitrile [Example 694]
IC50 ([1]; average IC50, HEK cells, read-out: HEK cell assay): 1.09 µM

NC1=N[C@@]2(CO1)c1cc(-c3cccnc3F)ccc1Oc1c(F)cc(C3=CCCOC3)cc12 [Example 129, (S)-2′-(5,6-dihydro-2H-pyran-3-yl)-4′-fluoro-7′-(2-fluoropyridin-3-yl)-5H-spiro[oxazole-4,9′-xanthen]-2-amine]
IC50 [1, 3]: 0.0032 µM

NC1=N[C@@]2(CO1)c1cc(-c3cccnc3F)ccc1Oc1cnc(N3CC[C@H](F)C3)cc12 [Example 133, (S)-7-(2-fluoropyridin-3-yl)-3-((S)-3-fluoropyrrolidin-1-yl)-5′H-spiro[chromeno[2,3-c]pyridine-5,4′-oxazol]-2′-amine]
IC50 [1, 4]: 0.0096 µM

NC1=N[C@@]2(CO1)c1cc(-c3cccnc3F)ccc1Oc1c(F)cc(N3CCOCC3)cc12 [Example 139, (S)-4′-fluoro-7′-(2-fluoropyridin-3-yl)-2′-morpholino-5H-spiro[oxazole-4,9′-xanthen]-2-amine]
IC50 [1, 3]: 0.0052 µM

NC1=N[C@@]2(CO1)c1cc(-c3cccnc3F)ccc1Oc1c(F)cc(-c3ccccn3)cc12 [Example 196, (4S)-4′-fluoro-7′-(2-fluoro-3-pyridinyl)-2′-(2-pyridinyl)spiro[1,3-oxazole-4,9′-xanthen]-2-amine]
IC50 [1, 3]: 0.0097 µM

NC1=N[C@@]2(CO1)c1cc(-c3cccnc3F)ccc1Oc1c(F)cc(N3CC[C@@H](F)C3)cc12 [Example 279, (4S)-4′-fluoro-7′-(2-fluoro-3-pyridinyl)-2′-((3R)-3-fluoro-1-pyrrolidinyl)spiro[1,3-oxazole-4,9′-xanthen]-2-amine]
IC50 [1, 3]: 0.0085 µM

NC1=N[C@@]2(CO1)c1cc(-c3cccnc3F)ccc1Oc1c(F)cc(N3CC[C@H](F)C3)cc12 [Example 280, (S)-4′-fluoro-7′-(2-fluoropyridin-3-yl)-2′-((S)-3-fluoropyrrolidin-1-yl)-5H-spiro[oxazole-4,9′-xanthen]-2-amine]
IC50 [1, 3]: 0.0069 µM

CC(C)(C)C#Cc1cnc2c(c1)[C@]1(COC(N)=N1)c1cc(-c3cncnc3)c(F)cc1O2 [Example 340, (5S)-3-(3,3-dimethyl-1-butyn-1-yl)-8-fluoro-7-(5-pyrimidinyl)spiro[chromeno[2,3-b]pyridine-5,4′-[1,3]oxazol]-2′-amine]
IC50 ([1]; average IC50, read-out: HEK cell assay): 0.0843 µM

NC1=N[C@@]2(CO1)c1cc(-c3cccnc3F)ccc1Oc1cnc(N3CC[C@@H](F)C3)cc12 [Example 416, (5S)-7-(2-fluoro-3-pyridinyl)-3-((3R)-3-fluoro-1-pyrrolidinyl)spiro[chromeno[2,3-c]pyridine-5,4′-[1,3]oxazol]-2′-amine]
IC50 [1, 4]: 0.0049 µM

NC1=N[C@@]2(CO1)c1cc(-c3cccnc3F)ccc1Oc1ncc(C3=CCOCC3)cc12 [Example 460, (5S)-3-(3,6-dihydro-2H-pyran-4-yl)-7-(2-fluoro-3-pyridinyl)spiro[chromeno[2,3-b]pyridine-5,4′-[1,3]oxazol]-2′-amine]
IC50 [1, 5]: 0.0065 µM

NC1=N[C@@]2(CS1)c1cc(Br)ccc1Oc1cnc(Cl)cc12 [Example 588, (5S)-7-bromo-3-chlorospiro[chromeno[2,3-c]pyridine-5,4′-[1,3]thiazol]-2′-amine]
IC50 [1, 5]: 10 µM

NC1=N[C@@]2(CO1)c1cc(-c3cccnc3F)ccc1Oc1cnc(N3CCOCC3)cc12 [Example 890, (5S)-7-(2-fluoro-3-pyridinyl)-3-(4-morpholinyl)spiro[chromeno[2,3-c]pyridine-5,4′-[1,3]oxazol]-2′-amine]
IC50 ([2]; BACE 1 FRET assay (uM)): 0.0013 µM

(4S)-4′-fluoro-7′-(2-fluoro-3-pyridinyl)-2′-(2-oxa-6-azaspiro[3.4]oct-6-yl)spiro[1,3-oxazole-4,9′-xanthen]-2-amine [Example 857]
IC50 [2, 6]: < 0.002 µM

(4S)-4′-fluoro-7′-(2-fluoro-3-pyridinyl)-2′-(6-methoxy-3-pyridinyl)spiro[1,3-oxazole-4,9′-xanthen]-2-amine [Example 224]
IC50 [2, 6]: 0.002 µM

(4S)-4′-fluoro-7′-(2-fluoro-3-pyridinyl)-2′-(6-methyl-3-pyridinyl)spiro[1,3-oxazole-4,9′-xanthen]-2-amine [Example 223]
IC50 [2, 6]: 0.002 µM

— patent US8883782B2, “Spiro-tetracyclic ring compounds as beta-secretase modulators and methods of use” (Amgen Inc., priority 2010, dated 2014)
